Earlier results in paper PMC11930985 (Nature Communications, 2025).
Read-outs that look alike come from different tables or passages of the source.

Columns and labels:
[1] = test system: healthy male subjects; set-up: method as in Protocol BGBC001; conditions: ref Protocol BGBC001, cited from earlier work
[2] = set-up: method as in Protocol BGBC001; conditions: ref Protocol BGBC001, cited from earlier work
[3] = test system: Flt4; set-up: method as in Investigator's Brochure (IB) version 5.0; conditions: ref Investigator's Brochure (IB) version 5.0; cited from earlier work
[4] = molecular target: Tie2; set-up: method as in Investigator's Brochure (IB) version 5.0; conditions: ref Investigator's Brochure (IB) version 5.0; cited from earlier work
[5] = molecular target: Flt4; set-up: method as in Investigator's Brochure (IB) version 5.0; conditions: ref Investigator's Brochure (IB) version 5.0; cited from earlier work; remark: listed apart in the source
[6] = test system: monkeys; set-up: method as in Investigator's Brochure (IB) version 5.0; conditions: 28-day repeat dose; ref Investigator's Brochure (IB) version 5.0; cited from earlier work

Nc1nc(Nc2ccc3c(c2)CC[C@@H](N2CCCC2)CC3)nn1-c1cc2c(nn1)-c1ccccc1CCC2 [Bemcentinib]
Non-Cardiac Chest Pain, Maximum Grade (CTCAE version 4.0) ([1]; 50 mg, 4 fasted, 1 fed): One
Orthostatic hypotension, Maximum Grade (CTCAE version 4.0) ([1]; 100 mg, 4 fasted, 2 fed): One
Abdominal Distension x 2, Maximum Grade (CTCAE version 4.0) ([1]; 150 mg, 4 fasted, 1 fed): One
Diarrhoea, Maximum Grade (CTCAE version 4.0) ([1]; 400 mg, 4 fasted, 2 fed): One
Diarrhoea, Maximum Grade (CTCAE version 4.0) ([1]; 600 mg, 4 fasted): One
Flatulence, Maximum Grade (CTCAE version 4.0) ([1]; 600 mg, 4 fasted): One
Nausea x 2, Maximum Grade (CTCAE version 4.0) ([1]; 600 mg, 4 fasted): One
Nausea, Maximum Grade (CTCAE version 4.0) ([1]; 1000 mg, 4 fasted): One
Diarrhoea, Maximum Grade (CTCAE version 4.0) ([1]; 1500 mg, 4 fasted): One
Dizziness, Maximum Grade (CTCAE version 4.0) ([1]; 1500 mg, 4 fasted): One
Headache, Maximum Grade (CTCAE version 4.0) ([1]; 1500 mg, 4 fasted): One
Nausea, Maximum Grade (CTCAE version 4.0) ([1]; 1500 mg, 4 fasted): Two
Vomiting, Maximum Grade (CTCAE version 4.0) ([1]; 1500 mg, 4 fasted): Two
Serious adverse events (SAE) ([1]; single dose 50-1500 mg): No serious adverse events
t1/2 ([2]; single oral dose, healthy subjects): > 24 h
Estimated increase in exposure with food in some subjects ([2]; whole milk and buttered toast): up to two
IC50 [3]: 41 nM
Kd [4]: 270 nM
Kd [5]: 460 nM
Target organs [6]: liver, reticuloendothelial system and haematopoietic system
